Six compounds from US8835632B2, “Methods to increase the photostability of dyes” (The University of North Carolina at Chapel Hill, priority 2007, dated 2014) can be followed below.

The data set is described as follows: Absorption and fluorescence spectra, extinction coefficient, fluorescence quantum yield. Type of data set: physicochemical. The protocol: Absorption spectra were recorded on a Hewlett-Packard 8453 diode array UV-Vis spectrophotometer (Agilent Technologies, Inc., Santa Clara, Calif.), and fluorescence measurements were taken on a SPEX® Fluorolog 2 spectrofluorometer (HORIBA Jobin Yvon, Inc., Edison, N.J.). Melting points are not corrected. NMR spectra were obtained on a Varian Mercury 300 MHz (Varian, Inc., Palo Alto, Calif.) or on a Bruker 300 MHz DRX 300 spectrometer (Bruker Biospin Corp., Billerica, Mass.). Mass spectra were obtained on a Hewlett-Packard 1100 high-performance liquid chromatograph equipped with an 1100 mass selective detector (MS-ESI) (Agilent Technologies, Inc.).
With decreasing solvent polarity, the absorption maximum of dyes 1a-b, 2a-d shifted to longer wavelengths, and the intensity of the transition increased (Table 10, FIG. 11).
The SCRF/VSCRF predicted emission energies and the solute dipole moments before and after the vertical emission process are given in Table 16. The dipole moments of AI-BA(4) and AI-SO(4) are further decreased on the S1 surface after geometry relaxation (in MeOH solution), and then increased during the S1→S0 transition. This observation is consistent with the blue shifts of the emission bands of AI-BA(4) and AI-SO(4) with increasing solvent polarity from C6H6 to MeOH. By contrast, the dipole moment of I-SO further decreases after S1 state geometry relaxation, and then decreases during the vertical emission process. This observation also is in agreement with the red shift of the I-SO emission band with increasing solvent polarity from C6H6 to MeOH. Similarly to the absorption case, a negligible red shift (ΔEem=0.017 eV) was predicted for the emission band of I-TBA with increasing solvent polarity. A small red shift from C6H6 to DMF (with ΔEem=0.020 eV, or Δλmax=6 nm) is observed. The nearly equal emission energy observed in C6H6 and MeOH can again result in the explicit interactions between the solute and solvent molecules.

Each structure is given as a SMILES string.

Take `Cn1c(O)c(/C=C/C=C(\C#N)c2cc[n+]3c(c2)C(C)(C)c2ccccc2-3)c(=O)n(C)c1=O` [AI-BA-CN]: where the note is “Butanol (BuOH)”, the “Absorbance λmax” value was found to be 600 nm, the “Emission λmax” value worked out at 620 nm, the “Extinction coefficient ε” value turned out to be 189000 and the “Fluorescence quantum yield Φ” value is given as 0.25. In addition, where the note is “Methanol (MeOH)”, the “Absorbance λmax” value is on record as 589 nm, the “Emission λmax” value was found to be 613 nm, the “Extinction coefficient ε” value was determined as 180000 and the “Fluorescence quantum yield Φ” value came out at 0.05. Besides, under “Water-Methanol (H2O—MeOH)”, the “Absorbance λmax” value stood at 578 nm, the “Emission λmax” value stood at 607 nm, the “Extinction coefficient ε” value is reported as 123000 and the “Fluorescence quantum yield Φ” value turned out to be 0.15.
`Cn1c(O)c(/C=C/C=C/c2cc[n+]3c(c2)C(C)(C)c2ccccc2-3)c(=O)n(C)c1=O` [AI-BA]: where the note is “Butanol (BuOH)”, the “Absorbance λmax” value was 615 nm, the “Emission λmax” value amounted to 654 nm, the “Extinction coefficient ε” value turned out to be 154000 and the “Fluorescence quantum yield Φ” value is 0.29. Further, under “Methanol (MeOH)”, the “Absorbance λmax” value is listed as 585 nm, the “Emission λmax” value was found to be 618 nm, the “Extinction coefficient ε” value is reported as 83000 and the “Fluorescence quantum yield Φ” value came to 0.52.
For the compound `CC1(C)c2ccccc2-[n+]2ccc(/C(C#N)=C/C=C/C3=C(O)c4ccccc4S3(=O)=O)cc21` [AI-SO-CN], for the setting “Butanol (BuOH)”, the “Absorbance λmax” value is 619 nm, the “Emission λmax” value was found to be 640 nm, the “Extinction coefficient ε” value stood at 168000 and the “Fluorescence quantum yield Φ” value was 0.29. Where the note is “Methanol (MeOH)”, the “Absorbance λmax” value is on record as 608 nm, the “Emission λmax” value is listed as 624 nm, the “Extinction coefficient ε” value came to 163000 and the “Fluorescence quantum yield Φ” value was found to be 0.08. Besides, under “Water-Methanol (H2O—MeOH)”, the “Absorbance λmax” value came out at 601 nm, the “Emission λmax” value is 624 nm, the “Extinction coefficient ε” value stood at 128000 and the “Fluorescence quantum yield Φ” value was 0.08.
Take `CCn1c(O)c(/C=C/C=C(\C#N)c2cc[n+]3c(c2)C(C)(C)c2ccccc2-3)c(=O)n(CC)c1=S` [AI-TBA-CN]: where the note is “Butanol (BuOH)”, the “Absorbance λmax” value was 621 nm, the “Emission λmax” value is 641 nm, the “Extinction coefficient ε” value was 188000 and the “Fluorescence quantum yield Φ” value came out at 0.33. For the setting “Methanol (MeOH)”, the “Absorbance λmax” value was 606 nm, the “Emission λmax” value is 632 nm, the “Extinction coefficient ε” value stood at 146000 and the “Fluorescence quantum yield Φ” value turned out to be 0.22. Further, for the setting “Water-Methanol (H2O—MeOH)”, the “Absorbance λmax” value was 593 nm, the “Emission λmax” value was 625 nm, the “Extinction coefficient ε” value is 77000 and the “Fluorescence quantum yield Φ” value was found to be 0.17.
Take `CCn1c([O-])c(/C=C/C=C/c2cc[n+]3c(c2)C(C)(C)c2ccccc2-3)c(=O)n(CC)c1=S` [AI-TBA]: the “Absorbance λmax” value by setting is: (Butanol (BuOH)) 619 nm; (Methanol (MeOH)) 576 nm. For the same compound, the “Extinction coefficient ε” value is on record as 53000 (Butanol (BuOH)) and 38000 (Methanol (MeOH)). The “Absorption energy Eabs Exp” value (C6H6) was 1.816 eV and the “Absorption energy Eabs Exp” value (MeOH) was 2.153 eV. The “Observed absorption (ε)” value (Table 10, BuOH) is “(53000)”; the “Observed absorption (ε)” value (Table 10, C6H6) was “(135000)”; the “Observed absorption (ε)” value (Table 10, CH2Cl2) is reported as “(104000)”; the “Observed absorption (ε)” value (Table 10, CH3CN) was “(54000)”; the “Observed absorption (ε)” value (Table 10, DMF) is recorded as “(52000)”; the “Observed absorption (ε)” value (Table 10, DMSO) was “(56000)”. The “Observed absorption (ε)” value reads like this: (Table 10, EtOH) “(46000)”; (Table 10, MeOH) “(38000)”; (Table 10, OcOH) “(97000)”; (Table 10, i-PrOH) “(50000)”. Besides, the “Observed absorption λmax” value is 619 nm (Table 10, BuOH); 683 nm (Table 10, C6H6); 655 nm (Table 10, CH2Cl2); 615 nm (Table 10, CH3CN); 616 nm (Table 10, DMF); 607 nm (Table 10, DMSO). Besides, the “Observed absorption λmax” value is 603 nm (Table 10, EtOH); 576 nm (Table 10, MeOH); 633 nm (Table 10, OcOH); 618 nm (Table 10, i-PrOH). The “Absorption Exp wavelength” value was found to be 683 nm (Table 12, C6H6) and 576 nm (Table 12, MeOH).
On to `C[n+]1ccc(/C=C/C2=C([O-])c3ccccc3S2(=O)=O)cc1` [P-SO(2)], for which the “Observed absorption (ε)” value reads like this: (Table 10, BuOH) “(67000)”; (Table 10, C6H6) “(169000)”; (Table 10, CH2Cl2) “(128000)”; (Table 10, CH3CN) “(89000)”; (Table 10, DMF) “(92000)”; (Table 10, DMSO) “(75000)”. The “Observed absorption (ε)” value (Table 10, EtOH) was “(65000)”; the “Observed absorption (ε)” value (Table 10, MeOH) is on record as “(57000)”; the “Observed absorption (ε)” value (Table 10, OcOH) is “(72000)”; the “Observed absorption (ε)” value (Table 10, i-PrOH) was “(72000)”. Also, the “Observed absorption λmax” value stood at 519 nm (Table 10, BuOH); 538 nm (Table 10, C6H6); 529 nm (Table 10, CH2Cl2); 546 nm (Table 10, CH3CN); 522 nm (Table 10, DMF); 520 nm (Table 10, DMSO). Moreover, the “Observed absorption λmax” value (Table 10, EtOH) was 514 nm; the “Observed absorption λmax” value (Table 10, MeOH) came out at 505 nm; the “Observed absorption λmax” value (Table 10, OcOH) is recorded as 524 nm; the “Observed absorption λmax” value (Table 10, i-PrOH) is reported as 518 nm. Further, the “Observed emission (Φ)” value is, setting by setting: (Table 15, BuOH) 0.015; (Table 15, C6H6) 0.004; (Table 15, CH2Cl2) 0.01; (Table 15, CH3CN) 0.011; (Table 15, DMF) 0.025; (Table 15, DMSO) 0.024. In addition, the “Observed emission (Φ)” value reads like this: (Table 15, EtOH) 0.008; (Table 15, MeOH) 0.005; (Table 15, OcOH) 0.024; (Table 15, i-PrOH) 0.014. Further, the “Observed emission λmax” value reads like this: (Table 15, BuOH) 535 nm; (Table 15, C6H6) 546 nm; (Table 15, CH2Cl2) 541 nm; (Table 15, CH3CN) 531 nm; (Table 15, DMF) 534 nm; (Table 15, DMSO) 535 nm. The “Observed emission λmax” value reads like this: (Table 15, EtOH) 533 nm; (Table 15, MeOH) 529 nm; (Table 15, OcOH) 536 nm; (Table 15, i-PrOH) 532 nm.
